Data taken from PubChem BioAssay AID493043 (Johns Hopkins Ion Channel Center, 2011).

Molecular target: Potassium voltage-gated channel subfamily KQT member 4 (Homo sapiens) (UniProt P56696)
Experiment: human KCNQ4 channel current potentiation, dose response, selectivity assay for KCNQ2 activator project, automated patch clamp, CHO cells (AID 493043)

Chain of Potassium voltage-gated channel subfamily KQT member 4 (Homo sapiens) (P56696 whole entry, looked up): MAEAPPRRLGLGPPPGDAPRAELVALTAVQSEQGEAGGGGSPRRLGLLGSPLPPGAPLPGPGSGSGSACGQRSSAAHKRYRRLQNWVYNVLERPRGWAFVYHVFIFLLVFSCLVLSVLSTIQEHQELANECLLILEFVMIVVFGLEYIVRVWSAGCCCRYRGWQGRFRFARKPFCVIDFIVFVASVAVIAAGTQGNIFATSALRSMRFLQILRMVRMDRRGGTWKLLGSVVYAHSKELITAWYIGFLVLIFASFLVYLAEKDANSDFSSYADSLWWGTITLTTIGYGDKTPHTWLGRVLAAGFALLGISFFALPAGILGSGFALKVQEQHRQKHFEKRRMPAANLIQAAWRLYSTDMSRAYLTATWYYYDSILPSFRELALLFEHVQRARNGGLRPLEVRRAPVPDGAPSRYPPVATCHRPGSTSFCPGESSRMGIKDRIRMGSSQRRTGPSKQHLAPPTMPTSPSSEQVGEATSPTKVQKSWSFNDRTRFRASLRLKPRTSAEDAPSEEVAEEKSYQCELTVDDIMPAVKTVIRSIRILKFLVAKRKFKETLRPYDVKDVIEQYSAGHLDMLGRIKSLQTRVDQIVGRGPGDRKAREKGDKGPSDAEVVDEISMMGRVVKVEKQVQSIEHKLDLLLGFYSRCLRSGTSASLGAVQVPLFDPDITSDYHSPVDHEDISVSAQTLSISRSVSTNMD

EC50: 513 nM
SMILES: Cc1cc(C)c(NC(=O)C2CC3CCC2C3)c(C)c1 (stereo unspecified)
